Measurements published in PubChem BioAssay AID248 (DTP/NCI, 2004).
Inconclusive results and toxic doses are left out. No stated cut-off is given here; in the data, active means T/C of 150% or more; inactive means T/C below 125%.

Tested on: L1210 leukemia ip in BDF1 mice, survival T/C
Assay: NCI In Vivo Anticancer Drug Screen. Data for tumor model L1210 Leukemia (intraperitoneal) in B6D2F1 (BDF1) mice
Settings: endpoint: mean survival time, higher = longer survival
Summary of the method: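 Transplanted-tumor mice were given test agent; controls received vehicle only. Survival readings from the two groups were divided (treated over control).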

[1] = dose: 50.0 mg/kg/injection, schedule: Q04DX003 (ip), vehicle: saline
[2] = dose: 100.0 mg/kg/injection, schedule: Q01DX001 (ip), vehicle: saline
[3] = dose: 200.0 mg/kg/injection, schedule: Q01DX001 (ip), vehicle: saline
[4] = dose: 400.0 mg/kg/injection, schedule: Q01DX001 (ip), vehicle: saline
[5] = dose: 100.0 mg/kg/injection, schedule: Q04DX003 (ip), vehicle: Klucel (hydroxypropylcellulose) (HPC)
[6] = dose: 200.0 mg/kg/injection, schedule: Q04DX003 (ip), vehicle: Klucel (hydroxypropylcellulose) (HPC)
[7] = dose: 400.0 mg/kg/injection, schedule: Q04DX003 (ip), vehicle: Klucel (hydroxypropylcellulose) (HPC)
[8] = dose: 75.0 mg/kg/injection, schedule: Q01DX001 (ip), vehicle: saline
[9] = dose: 150.0 mg/kg/injection, schedule: Q01DX001 (ip), vehicle: saline
[10] = dose: 100.0 mg/kg/injection, schedule: Q01DX001 (ip), vehicle: other
[11] = dose: 100.0 mg/kg/injection, schedule: Q01DX009 (ip), vehicle: saline with Tween-80
[12] = dose: 200.0 mg/kg/injection, schedule: Q01DX001 (ip), vehicle: other
[13] = dose: 400.0 mg/kg/injection, schedule: Q01DX001 (ip), vehicle: other
[14] = dose: 400.0 mg/kg/injection, schedule: Q01DX009 (ip), vehicle: saline with Tween-80
[15] = dose: 200.0 mg/kg/injection, schedule: Q01DX009 (ip), vehicle: saline with Tween-80
[16] = dose: 100.0 mg/kg/injection, schedule: Q01DX009 (ip), vehicle: Klucel (hydroxypropylcellulose) (HPC)
[17] = dose: 25.0 mg/kg/injection, schedule: Q01DX009 (ip), vehicle: Klucel (hydroxypropylcellulose) (HPC)
[18] = dose: 50.0 mg/kg/injection, schedule: Q01DX009 (ip), vehicle: Klucel (hydroxypropylcellulose) (HPC)
[19] = dose: 100.0 mg/kg/injection, schedule: Q04DX003 (ip), vehicle: saline with Tween-80
[20] = dose: 200.0 mg/kg/injection, schedule: Q04DX003 (ip), vehicle: saline with Tween-80
[21] = dose: 100.0 mg/kg/injection, schedule: Q01DX001 (ip), vehicle: carboxymethylcellulose (CMC)
[22] = dose: 400.0 mg/kg/injection, schedule: Q04DX003 (ip), vehicle: saline with Tween-80
[23] = dose: 100.0 mg/kg/injection, schedule: Q04DX003 (ip), vehicle: other
[24] = dose: 200.0 mg/kg/injection, schedule: Q04DX003 (ip), vehicle: other

Measured: T/C

Cc1ccc(N2CCNCC2)cc1Cl
inactive: dose: 12.5 mg/kg/injection, schedule: Q01DX009 (ip), vehicle: saline 100 % of control | dose: 25.0 mg/kg/injection, schedule: Q01DX009 (ip), vehicle: saline 91 % of control | dose: 50.0 mg/kg/injection, schedule: Q01DX009 (ip), vehicle: saline 102 % of control | [1] 102 % of control

Cc1cc(=O)cc(C)[nH]1
inactive: [2] 90 % of control | [3] 94 % of control | [4] 92 % of control

COc1ccc(C2C(C(=O)N3CCN(C)CC3)C2c2ccc(OC)cc2)cc1 (configuration not stated)
inactive: dose: 12.5 mg/kg/injection, schedule: Q04DX002 (ip), vehicle: saline 102 % of control | dose: 25.0 mg/kg/injection, schedule: Q04DX002 (ip), vehicle: saline 102 % of control | dose: 50.0 mg/kg/injection, schedule: Q04DX002 (ip), vehicle: saline 102 % of control

CC(NC(=O)c1ccccc1)C(=O)Nc1ccccc1 (configuration not stated)
inactive: dose: 100.0 mg/kg/injection, schedule: Q04DX002 (ip), vehicle: Klucel (hydroxypropylcellulose) (HPC) 101 % of control | dose: 200.0 mg/kg/injection, schedule: Q04DX002 (ip), vehicle: Klucel (hydroxypropylcellulose) (HPC) 114 % of control | dose: 400.0 mg/kg/injection, schedule: Q04DX002 (ip), vehicle: Klucel (hydroxypropylcellulose) (HPC) 108 % of control

CCCCCCCCCCCCC/C=C/CC(CC(=O)O)C(=O)Nc1cccc2c[n+](CC(=O)c3ccc(NC(C)=O)cc3)ccc12 (configuration not stated)
inactive: [5] 111 % of control | [6] 101 % of control | [7] 105 % of control

O=c1oc2ccccc2c(O)c1C(c1ccc2c(c1)CCC2)c1c(O)c2ccccc2oc1=O
inactive: [5] 92 % of control | [6] 100 % of control | [7] 92 % of control

COC(=O)/C=C1/OC(=O)CC1(C)C
inactive: dose: 100.0 mg/kg/injection, schedule: Q01DX001 (ip), vehicle: Klucel (hydroxypropylcellulose) (HPC) 106 % of control | dose: 100.0 mg/kg/injection, schedule: Q01DX009 (ip), vehicle: saline sonified 100 % of control | dose: 200.0 mg/kg/injection, schedule: Q01DX001 (ip), vehicle: Klucel (hydroxypropylcellulose) (HPC) 104 % of control | dose: 200.0 mg/kg/injection, schedule: Q01DX009 (ip), vehicle: saline sonified 96 % of control | dose: 400.0 mg/kg/injection, schedule: Q01DX001 (ip), vehicle: Klucel (hydroxypropylcellulose) (HPC) 107 % of control | dose: 400.0 mg/kg/injection, schedule: Q01DX009 (ip), vehicle: saline sonified 100 % of control

CCN(CC)CCCC(C)Nc1cc(N)c2ncc(-c3ccc(Cl)cc3)nc2n1 (configuration not stated)
inactive: [8] 96 % of control | [9] 102 % of control

CC(=O)Nc1ccc(S(=O)(=O)NC(C)=O)cc1
inactive: [10] 94 % of control | [11] 108 % of control | [12] 96 % of control | [13] 107 % of control | [14] 97 % of control

NC(N)=NS(=O)(=O)c1ccc(N)cc1
inactive: [11] 98 % of control | [15] 95 % of control | [14] 91 % of control

COc1ccc(OC)c(C(=O)CC2OCCO2)c1
inactive: [2] 95 % of control | [3] 95 % of control | [4] 105 % of control

CS(=O)(=O)c1nnc(-c2ccc(Cl)c(Cl)c2)s1
inactive: [8] 101 % of control | dose: 75.0 mg/kg/injection, schedule: Q04DX003 (ip), vehicle: saline 110 % of control | [9] 100 % of control | dose: 150.0 mg/kg/injection, schedule: Q04DX003 (ip), vehicle: saline 95 % of control | dose: 300.0 mg/kg/injection, schedule: Q01DX001 (ip), vehicle: saline 110 % of control

CCOC(=O)C(O)(C(=O)OCC)c1ccccc1
inactive: [10] 97 % of control | [12] 102 % of control | [13] 103 % of control

CN(C)C(=O)c1ccccc1O
inactive: [16] 100 % of control | dose: 200.0 mg/kg/injection, schedule: Q01DX009 (ip), vehicle: Klucel (hydroxypropylcellulose) (HPC) 90 % of control | dose: 400.0 mg/kg/injection, schedule: Q01DX009 (ip), vehicle: Klucel (hydroxypropylcellulose) (HPC) 90 % of control

N/C(Cc1ccc([N+](=O)[O-])cc1)=N\O
inactive: [17] 100 % of control | [18] 91 % of control | [16] 100 % of control

Cc1c(C)c(Br)c(C)c(-c2c(O)c(Br)c(-c3c(C)c(C)c(C)c(Br)c3C)c(O)c2Br)c1C
inactive: [19] 97 % of control | [20] 90 % of control

CCCNC(C)(C)C(SSSC(c1ccc(C(F)(F)F)cc1)C(C)(C)NCCC)c1ccc(C(F)(F)F)cc1 (configuration not stated)
inactive: [11] 96 % of control | [15] 100 % of control

COc1ccc(C2=CC(c3ccc(OC)c(OC)c3)c3c(c4ccccc4oc3=O)O2)cc1OC (configuration not stated)
inactive: dose: 25.0 mg/kg/injection, schedule: Q01DX009 (ip), vehicle: water 93 % of control | dose: 50.0 mg/kg/injection, schedule: Q01DX009 (ip), vehicle: water 98 % of control | dose: 100.0 mg/kg/injection, schedule: Q01DX009 (ip), vehicle: water 93 % of control | dose: 200.0 mg/kg/injection, schedule: Q01DX009 (ip), vehicle: water 94 % of control | dose: 400.0 mg/kg/injection, schedule: Q01DX009 (ip), vehicle: water 92 % of control

O=C1C(c2ccccc2)=CC(c2ccccc2)=C1c1ccccc1
inactive: dose: 50.0 mg/kg/injection, schedule: Q01DX001 (ip), vehicle: carboxymethylcellulose (CMC) 91 % of control | [21] 91 % of control | dose: 200.0 mg/kg/injection, schedule: Q01DX001 (ip), vehicle: carboxymethylcellulose (CMC) 94 % of control | dose: 400.0 mg/kg/injection, schedule: Q01DX001 (ip), vehicle: carboxymethylcellulose (CMC) 94 % of control

O=CNC(CSSCC(NC=O)C(=O)O)C(=O)O (configuration not stated)
inactive: [19] 101 % of control | [20] 103 % of control | [22] 90 % of control

CC(C)(C)c1cc(-c2cc(C(C)(C)C)c(O)c(C(C)(C)C)c2)cc(C(C)(C)C)c1O
inactive: [5] 104 % of control | [6] 107 % of control | [7] 98 % of control

O=C(Nc1cccc(Cl)c1)c1ccc2ccccc2c1O
inactive: dose: 100.0 mg/kg/injection, schedule: Q01DX001 (ip), vehicle: saline with Tween-80 97 % of control | [11] 106 % of control | [19] 98 % of control | dose: 200.0 mg/kg/injection, schedule: Q01DX001 (ip), vehicle: saline with Tween-80 93 % of control | [15] 98 % of control | [20] 96 % of control | dose: 400.0 mg/kg/injection, schedule: Q01DX001 (ip), vehicle: saline with Tween-80 97 % of control | [14] 101 % of control | [22] 96 % of control

CCCCNC(=O)C1C=C2c3cccc4[nH]cc(c34)CC2N(C)C1 (configuration not stated)
inactive: dose: 12.5 mg/kg/injection, schedule: Q01DX009 (ip), vehicle: Klucel (hydroxypropylcellulose) (HPC) 102 % of control | [17] 104 % of control | dose: 25.0 mg/kg/injection, schedule: Q04DX003 (ip), vehicle: Klucel (hydroxypropylcellulose) (HPC) 93 % of control | [18] 118 % of control | dose: 50.0 mg/kg/injection, schedule: Q04DX003 (ip), vehicle: Klucel (hydroxypropylcellulose) (HPC) 93 % of control | [5] 104 % of control | [6] 95 % of control

O=C(O)COc1ccc(Cl)cc1Cl (tested in a mixture with another compound)
inactive: dose: 25.0 mg/kg/injection, schedule: Q04DX003 (ip), vehicle: saline 102 % of control | [1] 98 % of control | [21] 93 % of control | [23] 90 % of control | [24] 95 % of control | dose: 400.0 mg/kg/injection, schedule: Q04DX003 (ip), vehicle: other 115 % of control

CC[NH-].CC[NH-].[Br][Pt+2][Br]
inactive: [23] 122 % of control | [24] 105 % of control

CCC(C)c1ccc(OCCO)cc1 (configuration not stated)
inactive: [2] 97 % of control | [3] 90 % of control
